The values below are quoted from earlier work in patent publication US11169101B2, “Oligosaccharide compositions and methods of use thereof” (Kaleido Biosciences, Inc., priority 2018, dated 2021).

Molecules are shown by their SMILES.

The conditions of the data set: administered in combination with lactulose.

On to `CO[C@H]1/C=C/O[C@@]2(C)Oc3c(C)c(O)c4c(O)c(c5c(nc6cc(C)ccn65)c4c3C2=O)NC(=O)/C(C)=C\C=C\[C@H](C)[C@H](O)[C@@H](C)[C@@H](O)[C@@H](C)[C@H](OC(C)=O)[C@@H]1C` [rifaximin], for which the “reduction of episodes of OHE” value is given as “approximately 50%”.
